Measured values taken from ChEMBL document CHEMBL2401646 (Bioorg Med Chem Lett, 2013).
Active and inactive are the calls of the source. No cut-off for these calls is given here.

Legend:
[1] = test system: MKN-45; assay: Antiproliferative activity against human MKN45 cells after 3 days by CellTiter-Glo assay; type: functional, cell-based; settings: MKN-45, 72 h
[2] = Volume of distribution at steady state in CD1 mouse at 2 mg/kg, iv; type: ADME, organism-based; set-up: dose 2 mg/kg, route intravenous; settings: in vivo, read-out: Vdss
[3] = Half life in CD1 mouse at 2 mg/kg, iv; type: ADME, organism-based; set-up: dose 2 mg/kg, route intravenous; settings: in vivo
[4] = Clearance in CD1 mouse at 2 mg/kg, iv; type: ADME, organism-based; set-up: dose 2 mg/kg, route intravenous; settings: in vivo
[5] = target: Cytochrome P450 3A4 (Homo sapiens, UniProt P08684); assay: Inhibition of CP3A4 (unknown origin)
[6] = species on record: Homo sapiens; assay: Ratio of IC50 for cMET Y1230H mutant (unknown origin) to IC50 for wild type cMET (unknown origin)
[7] = test system: KARPAS-299; assay: Antitumor activity against human KARPAS299 xenograft model assessed as tumor growth inhibition at 50 mg/kg qd; type: functional; settings: read-out: TGI
[8] = species on record: Homo sapiens; assay: Ratio of IC50 for cMET Y1230C mutant (unknown origin) to IC50 for wild type cMET (unknown origin)
[9] = Permeability of the compound at pH 7.4 by PAMPA; type: ADME; settings: read-out: permeability
[10] = test system: Mus musculus; assay: Toxicity in human MKN45 cells xenografted nu/nu CD1 mouse model assessed as body weigh loss at 200 mg/kg, po qd for 14 days; type: organism-based, MKN-45; set-up: dose 200 mg/kg, route oral; settings: in vivo, 336 h
[11] = test system: Mus musculus; assay: Toxicity in human MKN45 cells xenografted nu/nu CD1 mouse model assessed as body weigh loss at 50 mg/kg, po qd for 14 days; type: organism-based, MKN-45; set-up: dose 50 mg/kg, route oral; settings: in vivo, 336 h
[12] = Oral bioavailability in CD1 mouse at 20 mg/kg; type: ADME, organism-based; settings: in vivo
[13] = test system: Mus musculus; assay: Toxicity in human MKN45 cells xenografted nu/nu CD1 mouse model assessed as body weigh loss at 25 mg/kg, po qd for 14 days; type: organism-based, MKN-45; set-up: dose 25 mg/kg, route oral; settings: in vivo, 336 h
[14] = test system: MKN-45; assay: Antitumor activity against human MKN45 cells xenografted in nu/nu CD1 mouse model assessed as tumor growth inhibition at 50 mg/kg, po qd for 14 days; type: functional; settings: MKN-45, 336 h, read-out: TGI
[15] = Cmax in CD1 mouse at 20 mg/kg, po; type: ADME, organism-based; set-up: dose 20 mg/kg, route oral; settings: in vivo
[16] = AUC (0 to last) in CD1 mouse at 20 mg/kg, po; type: ADME, organism-based; set-up: dose 20 mg/kg, route oral, time 0 - last; settings: plasma
[17] = test system: MKN-45; assay: Antitumor activity against human MKN45 cells xenografted in nu/nu CD1 mouse model assessed as maximum tumor regression at 100 mg/kg, po qd for 14 days; type: functional
[18] = test system: Mus musculus; assay: Toxicity in human MKN45 cells xenografted nu/nu CD1 mouse model assessed as body weigh loss at 100 mg/kg, po qd for 14 days; type: organism-based, MKN-45; set-up: dose 100 mg/kg, route oral; settings: in vivo, 336 h
[19] = test system: MKN-45; assay: Antitumor activity against human MKN45 cells xenografted in nu/nu CD1 mouse model assessed as tumor growth inhibition at 25 mg/kg, po qd for 14 days; type: functional; settings: MKN-45, 336 h, read-out: TGI
[20] = test system: MKN-45; assay: Antitumor activity against human MKN45 cells xenografted in nu/nu CD1 mouse model assessed as maximum tumor regression at 25 mg/kg, po qd for 14 days; type: functional
[21] = test system: MKN-45; assay: Antitumor activity against human MKN45 cells xenografted in nu/nu CD1 mouse model assessed as maximum tumor regression at 200 mg/kg, po qd for 14 days; type: functional
[22] = test system: MKN-45; assay: Antitumor activity against human MKN45 cells xenografted in nu/nu CD1 mouse model assessed as tumor growth inhibition at 200 mg/kg, po qd for 14 days; type: functional; settings: MKN-45, 336 h, read-out: TGI
[23] = test system: MKN-45; assay: Antitumor activity against human MKN45 cells xenografted in nu/nu CD1 mouse model assessed as tumor growth inhibition at 100 mg/kg, po qd for 14 days; type: functional; settings: MKN-45, 336 h, read-out: TGI
[24] = test system: MKN-45; assay: Antitumor activity against human MKN45 cells xenografted in nu/nu CD1 mouse model assessed as maximum tumor regression at 50 mg/kg, po qd for 14 days; type: functional
[25] = test system: Mus musculus; assay: Inhibition of MET autophosphorylation at Y1349 in human MKN45 cells xenografted in mouse at 100 mg/kg, po up to 8 hrs; type: functional, organism-based; set-up: dose 100 mg/kg; settings: MKN-45
[26] = target: Tyrosine-protein kinase ABL2 (Homo sapiens) (UniProt P42684); settings: 1 uM
Description: Inhibition of ARG (unknown origin) autophosphorylation at 1 uM

[27] = test system: KARPAS-299; assay: Antitumor activity against human KARPAS299 xenograft model assessed as tumor growth inhibition up to 200 mg/kg qd; type: functional, organism-based; set-up: dose 200 mg/kg
[28] = target: Tyrosine-protein kinase ABL1 (Homo sapiens) (UniProt P00519); settings: 1 uM
Description: Inhibition of Abl (unknown origin) autophosphorylation at 1 uM

[29] = species on record: Homo sapiens; settings: 1 uM
Description: Inhibition of aurora kinase (unknown origin) autophosphorylation at 1 uM

[30] = target: Hepatocyte growth factor receptor (Homo sapiens, UniProt P08581); settings: 1 uM
Description: Inhibition of cMET (unknown origin) autophosphorylation at 1 uM

Which IC50 [1] does the source give for `C[C@@H](Oc1c(N)ncc2c(-c3ccccn3)coc12)c1c(Cl)ccc(F)c1Cl` here?
Its IC50 is 4600 nM.

For `C[C@@H](Oc1c(N)ncc2c(-c3cccnc3)coc12)c1c(Cl)ccc(F)c1Cl`, which IC50 [1] is on record?
Its IC50 is 2700 nM.

Which results are given for `C[C@@H](Oc1c(N)ncc2c(-c3cnn(C4CCNCC4)c3)coc12)c1c(Cl)ccc(F)c1Cl`?
Vd [2]: 12 L/kg; half-life [3]: 36 min; clearance [4]: 227 mL/min/kg; IC50 [1]: 300 nM

With `CC(Oc1c(N)ncc2c(-c3cnn(C4CCNCC4)c3)coc12)c1c(Cl)ccc(F)c1Cl` (racemic) as the molecule, how does the IC50 [5] read?
The IC50 was over 20000 nM.

What about the IC50 [1] of the same molecule?
The IC50 was 570 nM.

For `CC(Oc1c(N)ncc2c(-c3cnn(C4CCNCC4)c3)coc12)c1c(Cl)c(F)cc(F)c1Cl` (racemic), which IC50 [1] is on record?
The IC50 was 480 nM.

What does the source list for `C[C@@H](Oc1cc(-c2cnn(C3CCNCC3)c2)cnc1N)c1c(Cl)ccc(F)c1Cl` [CRIZOTINIB]?
Ratio IC50 [6]: 8; inhibition in vivo at 50 mg/kg [7]: 96%; Ratio IC50 [8]: > 600

With `CC(=O)N1CCC(n2cc(-c3coc4c(O[C@H](C)c5c(Cl)ccc(F)c5Cl)c(N)ncc34)cn2)CC1` as the molecule, how does the IC50 [1] read?
Its IC50 is 670 nM.

What about the Papp [9] of the same molecule?
The Papp was 318 ×10⁻⁶ cm/s.

Which IC50 [1] does the source give for `CC(=O)N1CC=C(c2coc3c(O[C@H](C)c4c(Cl)ccc(F)c4Cl)c(N)ncc23)CC1` here?
Its IC50 is 330 nM.

And the Papp [9]?
Its Papp is 199 ×10⁻⁶ cm/s.

For `COC(=O)N1CC=C(c2coc3c(O[C@H](C)c4c(Cl)ccc(F)c4Cl)c(N)ncc23)CC1`, which IC50 [1] is on record?
The IC50 was 850 nM.

With `CCCC(Oc1c(N)ncc2c(-c3cnn(C4CCNCC4)c3)coc12)c1c(Cl)ccc(F)c1Cl` (racemic) as the molecule, how does the IC50 [1] read?
Its IC50 is 2700 nM.

For `CNC(=O)c1coc2c(O[C@H](C)c3c(Cl)ccc(F)c3Cl)c(N)ncc12`, which IC50 [1] is on record?
The IC50 was 3500 nM.

For `CS(=O)(=O)O.C[C@@H](Oc1c(N)ncc2c(C3=CCN(C(N)=O)CC3)coc12)c1c(Cl)ccc(F)c1Cl`, which Activity [10] is on record?
The Activity was 3%.

What about the Activity [11] of the same molecule?
Its Activity is 2%.

And the bioavailability [12]?
Its bioavailability is 83%.

What about the Activity [13] of the same molecule?
Its Activity is 6%.

What about the inhibition in vivo at 50 mg/kg [14] of the same molecule?
Its inhibition in vivo at 50 mg/kg is 51%.

And the Cmax [15]?
The Cmax was 4800 nM.

And the AUC(0-t) [16]?
Its AUC(0-t) is 5420 ng·h/mL.

What about the Activity [17] of the same molecule?
Its Activity is 27%.

And the Activity [18]?
The Activity was 3%.

And the inhibition in vivo at 25 mg/kg [19]?
Its inhibition in vivo at 25 mg/kg is 13%.

And the Activity [20]?
The Activity was 0%.

What about the Activity [21] of the same molecule?
Its Activity is 49%.

What about the inhibition in vivo at 200 mg/kg [22] of the same molecule?
Its inhibition in vivo at 200 mg/kg is 100%.

What about the inhibition in vivo at 100 mg/kg [23] of the same molecule?
The inhibition in vivo at 100 mg/kg was 100%.

And the Activity [24]?
The Activity was 0%.

For `Nc1ncc2c(-c3cnn(C4CCNCC4)c3)coc2c1OCc1c(Cl)ccc(F)c1Cl`, which IC50 [1] is on record?
Its IC50 is 8600 nM.

Which results are given for `C[C@@H](Oc1c(N)ncc2c(-c3cnn(C4CCNCC4)c3)coc12)c1c(Cl)ccc(F)c1Cl.Cl.Cl.Cl.Cl`?
bioavailability [12]: 35%; Cmax [15]: 150 nM; AUC(0-t) [16]: 509 ng·h/mL

With `C[C@@H](Oc1c(N)ncc2c(C3=CCN(C(=O)N(C)C)CC3)coc12)c1c(Cl)ccc(F)c1Cl` as the molecule, how does the IC50 [1] read?
The IC50 was 510 nM.

Which IC50 [1] does the source give for `C[C@@H](Oc1c(N)ncc2c(-c3ccncc3)coc12)c1c(Cl)ccc(F)c1Cl` here?
Its IC50 is 900 nM.

With `C#CCC(Oc1c(N)ncc2c(-c3cnn(C4CCNCC4)c3)coc12)c1c(Cl)ccc(F)c1Cl` (racemic) as the molecule, how does the IC50 [5] read?
Its IC50 is 1600 nM.

What about the IC50 [1] of the same molecule?
Its IC50 is 360 nM.

For `CCC(Oc1c(N)ncc2c(-c3cnn(C4CCNCC4)c3)coc12)c1c(Cl)ccc(F)c1Cl` (racemic), which IC50 [1] is on record?
The IC50 was 3600 nM.

For `CC(Oc1c(N)ncc2c(-c3cnn(C4CCNCC4)c3)coc12)c1c(Cl)ccc(Cl)c1Cl` (racemic), which IC50 [1] is on record?
Its IC50 is 1300 nM.

With `C[C@@H](Oc1c(N)ncc2c(-c3ccccc3)coc12)c1c(Cl)ccc(F)c1Cl` as the molecule, how does the IC50 [1] read?
The IC50 was 11000 nM.

Which results are given for `C[C@@H](Oc1c(N)ncc2c(C3=CCN(C(N)=O)CC3)coc12)c1c(Cl)ccc(F)c1Cl`?
inhibition [25]: Active; inhibition [26]: > 50%; TGI [27]: inactive; inhibition [28]: > 50%; Ratio IC50 [8]: 3; inhibition [29]: > 50%; inhibition [30]: > 50%

Which Ratio IC50 [6] does the source give for `OCCn1cc(-c2cnc3nnn(Cc4ccc5ncccc5c4)c3n2)cn1` here?
Its Ratio IC50 is 8.

And the Ratio IC50 [8]?
The Ratio IC50 was over 600.

With `CC(Oc1c(N)ncc2c(-c3cnn(C4CCNCC4)c3)coc12)c1c(Cl)cccc1Cl` (racemic) as the molecule, how does the IC50 [1] read?
Its IC50 is 2000 nM.

For `C[C@@H](Oc1c(N)ncc2c(C3CCNCC3)coc12)c1c(Cl)ccc(F)c1Cl`, which IC50 [1] is on record?
Its IC50 is 3100 nM.

Which IC50 [1] does the source give for `C[C@@H](Oc1c(N)ncc2c(-c3cn[nH]c3)coc12)c1c(Cl)ccc(F)c1Cl` here?
The IC50 was 3300 nM.

With `C[C@@H](Oc1c(N)ncc2c(C3=CCNCC3)coc12)c1c(Cl)ccc(F)c1Cl` as the molecule, how does the IC50 [1] read?
Its IC50 is 450 nM.

Which IC50 [1] does the source give for `CC(Oc1c(N)ncc2c(-c3cnn(C4CCNCC4)c3)coc12)c1c(Br)ccc(F)c1Cl` (racemic) here?
The IC50 was 510 nM.

For `CC(Oc1c(N)ncc2c(-c3cnn(C4CCNCC4)c3)coc12)c1cccc(F)c1Cl` (racemic), which IC50 [1] is on record?
Its IC50 is 5100 nM.

Which IC50 [1] does the source give for `C[C@H](Oc1c(N)ncc2c(-c3cnn(C4CCNCC4)c3)coc12)c1c(Cl)ccc(F)c1Cl` here?
Its IC50 is 4500 nM.

With `CC(Oc1c(N)ncc2c(-c3cnn(C4CCNCC4)c3)coc12)c1cc(F)ccc1Cl` (racemic) as the molecule, how does the IC50 [1] read?
Its IC50 is 6400 nM.

For `CNC(=O)N1CC=C(c2coc3c(O[C@H](C)c4c(Cl)ccc(F)c4Cl)c(N)ncc23)CC1`, which IC50 [1] is on record?
Its IC50 is 190 nM.

With `COc1ccc(Cl)c([C@@H](C)Oc2c(N)ncc3c(-c4cnn(C5CCNCC5)c4)coc23)c1Cl` as the molecule, how does the IC50 [1] read?
Its IC50 is 1600 nM.

For `CC(Oc1c(N)ncc2c(-c3cnn(C4CCNCC4)c3)coc12)c1c(Cl)cc(Cl)cc1Cl` (racemic), which IC50 [1] is on record?
The IC50 was 3600 nM.
